Patent publication US20250214982A1, “COMPOUNDS USABLE AS MODULATORS OF PERK ACTIVITY” (Ramot at Tel-Aviv University Ltd., priority 2022, published 2025)
Converted amounts (≈) assume the structure as drawn.

Assays:
Solubility = type: physicochemical; details: for solubility compared to MK-28 (fold higher): relative to MK-28
Method: (§1) The solubility and lipophilicity of GLB7 and GLB11, two exemplary compounds according to some embodiments of the present invention, were measured compared to the PERK activator MK-28.

STHdhQ111/111 cells = assay: ER stress (tunicamycin)-induced apoptosis in STHdhQ111/111 cells; type: cell-based, murine; details: 10 μM compound, tunicamycin 48 hours, read from FIG. 2
Method: FIG. 2 presents comparative plots showing the apoptosis rate of STHdh^Q111/111 cells as a function of concentration of the exemplary compounds GLB11 and GLC19, following incubation with tunicamycin for 48 hours), as described for FIG. 1. P values *<0.05, **<0.01, ***<0.001. The asterisks indicate the significance compared to untreated cells.
Cell culture and transfections: Mouse embryonic fibroblasts (MEF) cells were grown as described in the art. Murine striatal cell line expressing full-length polyQ-expanded Htt (STHdhQ111/111) cells were grown as described in Leitman et al. [PLOS One 2014, 9 (3): e90803]. HEK 293 and VERO cells were grown in DMEM supplemented with 10% bovine calf serum at 37° C. under 5% CO2.
Apoptosis: Apoptosis was measured by cell cycle progression using propidium iodide (PI), considering the fraction beneath G0/G1.
Statistical analysis: Generally, the results are expressed as mean±standard deviation of 3 independent experiments. Apoptosis in the presence of tunicamycin and in the absence of other compounds was normalized to 100 to allow comparison between experiments. Significance by Two-tailed Student's t-test.
In order to assess the effect of the exemplary compounds on apoptosis, similar assays were performed in mouse embryonic fibroblasts (MEF; FIG. 1) and in STHdhQ111/111 cells (FIG. 2).

Lipophilicity (logD7.4) = type: physicochemical
Method: as §1

PERK = biological target: T1, PERK (Homo sapiens, UniProt Q9NZJ5); assay: PERK activation: eIF2α phosphorylation relative to total eIF2α in HEK293 cells (Western blot); type: cell-based; details: for increase in eIF2α phosphorylation relative to total eIF2α: 24 hours
T1 construct: endogenous in cells; host or cells: HEK293
T1 sequence (Q9NZJ5 30-1116): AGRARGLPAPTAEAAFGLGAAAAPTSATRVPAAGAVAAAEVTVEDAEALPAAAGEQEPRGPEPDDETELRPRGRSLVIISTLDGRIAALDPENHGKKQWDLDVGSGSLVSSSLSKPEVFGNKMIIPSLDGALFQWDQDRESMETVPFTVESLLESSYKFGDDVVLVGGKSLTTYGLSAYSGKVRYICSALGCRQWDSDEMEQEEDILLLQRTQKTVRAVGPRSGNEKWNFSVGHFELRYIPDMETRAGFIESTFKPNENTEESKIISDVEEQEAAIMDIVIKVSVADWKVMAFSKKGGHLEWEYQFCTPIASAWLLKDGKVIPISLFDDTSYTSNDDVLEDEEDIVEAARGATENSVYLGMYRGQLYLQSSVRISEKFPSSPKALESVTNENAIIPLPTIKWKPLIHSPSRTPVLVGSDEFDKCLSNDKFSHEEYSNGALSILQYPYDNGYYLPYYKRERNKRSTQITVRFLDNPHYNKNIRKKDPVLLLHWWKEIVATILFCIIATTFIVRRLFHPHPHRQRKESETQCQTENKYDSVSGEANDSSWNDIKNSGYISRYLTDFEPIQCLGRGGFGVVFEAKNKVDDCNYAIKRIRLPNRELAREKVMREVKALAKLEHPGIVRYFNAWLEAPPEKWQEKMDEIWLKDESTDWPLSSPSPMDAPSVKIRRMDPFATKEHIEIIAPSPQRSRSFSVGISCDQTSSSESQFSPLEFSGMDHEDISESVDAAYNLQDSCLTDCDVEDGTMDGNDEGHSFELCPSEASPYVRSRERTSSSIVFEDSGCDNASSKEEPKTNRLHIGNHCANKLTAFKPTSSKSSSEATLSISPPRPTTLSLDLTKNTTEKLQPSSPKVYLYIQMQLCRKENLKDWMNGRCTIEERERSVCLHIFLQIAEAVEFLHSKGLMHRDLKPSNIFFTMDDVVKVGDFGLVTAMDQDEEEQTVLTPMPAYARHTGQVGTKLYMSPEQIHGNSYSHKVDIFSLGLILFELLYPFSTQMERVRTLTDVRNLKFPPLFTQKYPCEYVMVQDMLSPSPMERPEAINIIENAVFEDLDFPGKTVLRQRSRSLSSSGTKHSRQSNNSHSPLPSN
Method: FIG. 3A presents comparative bar graphs showing the effect of treatment with MK-28 or GLB7 (5 μM, 10 μM or 20 μM, as indicated), on the levels of eIF2α-phosphorylation (eIF2α-P) relatively to total eIF2α (eIF2α) in lysed HEK293 cells. Treatment with MK-28 began 24 hours before lysis. Data was obtained from quantification of Western blots (FIG. 3B), and immunoblotting was performed with anti-eIF2α-P or anti-total eIF2α antibodies.
For this purpose, HEK293 cells were untreated or treated with 5, 10 or 20 μM GLB7 or MK-28. After 24 hours, the cells were lysed and the phosphorylated eIF2α levels were measured relatively to the total eIF2α (a substrate of PERK).

CN(NCc1ccc(O)c(O)c1)c1nc(-c2ccccc2)cc(-c2ccccc2)n1 [GLB11]
solubility (Solubility): 6 µM (≈ 2.39 µg/mL) | solubility compared to MK-28 (fold higher) (Solubility): > 4 fold | reduction of apoptosis (STHdhQ111/111 cells): about 20% | logD (Lipophilicity (logD7.4); pH 7.4): 4.8

CN(/N=C/c1ccc(C(F)(F)F)cc1)c1nc(-c2ccccc2)cc(-c2ccccc2)n1 [GLC19, (E)-2-(1-methyl-2-(4-(trifluoromethyl)benzylidene) hydrazinyl)-4,6-diphenyl pyrimidine]
reduction of apoptosis (STHdhQ111/111 cells): about 20%

Oc1ccc(C=NNc2nc(-c3ccccc3)cc(-c3ccccc3)n2)cc1O (racemic) [GLB7, 4-((2-(4,6-diphenylpyrimidin-2-yl)hydrazono)methyl)benzene-1,2-diol]
solubility (Solubility): 16 µM (≈ 6.12 µg/mL) | solubility compared to MK-28 (fold higher) (Solubility): > 10 fold | increase in eIF2α phosphorylation relative to total eIF2α (PERK; 5 μM): ~70% | increase in eIF2α phosphorylation relative to total eIF2α (PERK; 10 μM): 50% | increase in eIF2α phosphorylation relative to total eIF2α (PERK; 20 μM): 65% | PERK activation compared to MK-28 (PERK; lowest examined dose of 5 μM): higher levels of PERK activation | lipophilicity compared to MK-28 (Lipophilicity (logD7.4); relative to MK-28): decreased
